Results on 45 compounds are retold here after EP1166781A1, “PROTEASOME INHIBITORS” (KYOWA HAKKO KOGYO CO., LTD., priority 1999, dated 2000).

The structures appear in SMILES notation. Where two headings read alike, the source gives them in different places.

Test [1] concerns Human colon cancer, WiDr cells. Briefly: Antiproliferative activity in WiDr cells (MTT, 72 hours). The class given is cell-based. As for the experimental part: Human colon cancer, WiDr cells suspended in MEM media containing 10% of fetal calf serum were seeded in 96-well microtiter plates at 2 x 10^3cells/well, and precultured in an incubator with 5% of CO2 at 37°C for 24 hours. Then, each compound diluted appropriately with the media was added into the well at 50 µl/well. At this time, a final concentration of each compound is up to 100 µmol/l or 1 µmol/l. The cells were cultured in the incubator with 5% of CO2 at 37°C for additional 72 hours. At 5 hours before the culturing was terminated, MTT [3-(4,5-dimethylthiazol-2-yl)-2,5-[…] bromide] dissolved in the medium at a final concentration of 1 mg/mL was added into the well at 50 µl/well. After the culturing, dimethyl sulfoxide was added to the well at 150 µl/well, and the plate was vigorously stirred using a plate mixer to dissolve crystals of MTT-formazan completely. […]

For test [2], the target named is T1, proteasome (Homo sapiens, UniProt P28074).
T1 construct: The obtained high molecular fraction (molecular weight >500K) was used as an enzyme solution for the detection of proteasome activity; endogenous in cells; host or cells: HeLa S3 cells: homogenate, 100,000G supernatant, >500K fraction from Centricon-500
Briefly: Proteasome inhibitory activity (Suc-Leu-Leu-Val-Tyr-AMC cleavage, crude enzyme solution from HeLa S3 cell extract). In kind it is biochemical. As for the experimental part:
1 x 10^9 of HeLa S3 cells were dispersed in 5 ml of the buffer A [20 mmol/L of Tris (pH 7.5), 2 mmol/L of ATP, 5 mmol/L of MgCl2, 1 mmol/L of dithiothreitol (DTT)], and then homogenized at 4°C. The supernatant centrifuged at 100,000G was concentrated by a Centricon-500 (supplied by Amicon) and diluted with 2.5 ml of the buffer B [25 mmol/L of Tris/HCl (pH 7.5), 2 mmol/L of ATP, 1 mmol/L of DTT, 20% of glycerol]. The obtained high molecular fraction (molecular weight >500K) was used as an enzyme solution for the detection of proteasome activity. Suc-Leu-Leu-Val-Tyr-AMC [Suc: Succinyl; AMC: Aminomethylcoumarin](supplied by Peptide Institute, Inc.) was used as a substrate for measuring inhibitory activity for proteasome (stored as a 2 mmol/L DMSO solution). The reaction was carried out by the following method using 96-well microtiter plates. To 96 µl of a reaction buffer [20 mmol/L of Tris/HCl (pH 8), 0.5 mmol/L of EDTA, 0.04% of sodium dodecylsulfate (SDS)] were added 1 µl of a drug solution (DMSO) and 2 µl of an enzyme solution followed by adding 1 µl of a substrate solution thereto, and then the mixture was incubated at 37°C for one hour. […]

Where [3] appears, read: crude proteasome fraction (>500K) from HeLa S3 cells, substrate Suc-Leu-Leu-Val-Tyr-AMC, 37°C for one hour, read-out: IC50.
Where [4] appears, read: crude proteasome fraction (>500K) from HeLa S3 cells, substrate Suc-Leu-Leu-Val-Tyr-AMC, 37°C for one hour.

As usually defined, the IC50 is the point on the concentration scale where inhibition reaches its midpoint. `CCC(C)C1C(=O)OC1C(=O)NC1CC1CC(NC(=O)C(C)NC(=O)OC(C)(C)C)C(=O)OC` (centres unmarked) [Compound 1]: the values for the IC50 in test [1] and in test [2] were 790 nM and 50 nM, respectively. In the case of `CCC(C)C1C(=O)OC1C(=O)NC1CC1CC(NC(=O)C(C)N)C(=O)OC` (centres unmarked) [Compound 2], the IC50 in test [2] (setting [3]) was 70 nM. In the case of `CCC(C)C1C(=O)OC1C(=O)NC1CC1CC(NC(=O)C(C)NC(=O)OC(C)(C)C)C(=O)OCc1ccccc1` (centres unmarked) [Compound 3], the half-inhibitory concentration (IC50) in test [1] turned out to be 37 nM; in test [2] (setting [3]), 15 nM.

As to `CCC(C)C1C(=O)OC1C(=O)NC1CC1CC(NC(=O)C(C)NC(=O)OC(C)(C)C)C(=O)OCc1ccc2ccccc2c1` (centres unmarked) [Compound 5], the IC50 in test [1] is 30 nM; in test [2] (setting [3]) it was 6.2 nM. In the same order, the values of `CCC(C)C1C(=O)OC1C(=O)NC1CC1CC(NC(=O)C(C)N)C(=O)OCc1ccc2ccccc2c1` (centres unmarked) [Compound 6] are 40 nM and 38 nM.

Take `CCC(C)C1C(=O)OC1C(=O)NC1CC1CC(NC(=O)C(C)NC(=O)OC(C)(C)C)C(=O)OCc1c2ccccc2cc2ccccc12` (centres unmarked) [Compound 7]: the figures for the IC50 in test [1] and in test [2] (setting [3]) were 700 nM and 17 nM, respectively. For `CCC(C)C1C(=O)OC1C(=O)NC1CC1CC(NC(=O)C(C)NC(=O)OC(C)(C)C)C(=O)OCc1cccc(F)c1` (centres unmarked) [Compound 8], in test [2] (setting [3]), the IC50 was 14 nM. As to `C=CCOC(=O)C(CC1CC1NC(=O)C1OC(=O)C1C(C)CC)NC(=O)C(C)NC(=O)OC(C)(C)C` (centres unmarked) [Compound 9], the results for the IC50 in test [1] and in test [2] (setting [3]) were 10 nM and 26 nM, respectively. In the same order, the values of `C=CCOC(=O)C(CC1CC1NC(=O)C1OC(=O)C1C(C)CC)NC(=O)C(C)N` (centres unmarked) [Compound 10] are 68 nM and 46 nM. The matching figures for `CCCCOC(=O)C(CC1CC1NC(=O)C1OC(=O)C1C(C)CC)NC(=O)C(C)NC(=O)OC(C)(C)C` (centres unmarked) [Compound 11]: 10 nM and 19 nM.

With `CCCCOC(=O)C(CC1CC1NC(=O)C1OC(=O)C1C(C)CC)NC(=O)C(C)N` (centres unmarked) [Compound 12], the half-maximal inhibitory concentration (IC50) in test [1] was less than 41 nM; in test [2] (setting [3]), 51 nM.

Consider `CCC(C)C1C(=O)OC1C(=O)NC1CC1CC(NC(=O)C(C)NC(=O)OC(C)(C)C)C(=O)OC(C)(C)C` (centres unmarked) [Compound 13], for which the IC50 in test [1] was found to be 490 nM; in test [2] (setting [3]) it was 30 nM.

Turning to `CCC(C)C1C(=O)OC1C(=O)NC1CC1CC(NC(=O)C(C)NC(=O)OC(C)(C)C)C(=O)OCC1CCCCC1` (centres unmarked) [Compound 14], the IC50 in test [1] was determined as 300 nM; in test [2] (setting [4]) it was 18 nM.

Regarding `CCC(C)C1C(=O)OC1C(=O)NC1CC1CC(NC(=O)C(C)NC(=O)OC(C)(C)C)C(=O)OCC[Si](C)(C)C` (centres unmarked) [Compound 15], the IC50 stood at 200 nM in test [1] and 18 nM in test [2]. Regarding `CCC(C)C1C(=O)OC1C(=O)NC1CC1CC(NC(=O)C(C)NC(=O)OC(C)(C)C)C(=O)OCCO` (centres unmarked) [Compound 16], the IC50 worked out at 950 nM in test [1] and 52 nM in test [2] (setting [3]).

For `CCC(C)C1C(=O)OC1C(=O)NC1CC1CC(NC(=O)C(C)NC(=O)OC(C)(C)C)C(=O)OCOC` (centres unmarked) [Compound 17], the IC50 was determined as 180 nM in test [1] and 19 nM in test [2] (setting [3]). As to `CCC(C)C1C(=O)OC1C(=O)NC1CC1CC(NC(=O)C(C)NC(=O)OC(C)(C)C)C(=O)OCC(=O)c1ccccc1` (centres unmarked) [Compound 18], the IC50 came to 200 nM in test [1] and 12 nM in test [2] (setting [3]). The matching figures for `CCC(C)C1C(=O)OC1C(=O)NC1CC1CC(NC(=O)C(C)NC(=O)OC(C)(C)C)C(=O)NCc1ccccc1` (centres unmarked) [Compound 19]: 190 nM and 6.2 nM. `CCC(C)C1C(=O)OC1C(=O)NC1CC1CC(NC(=O)C(C)N)C(=O)NCc1ccccc1` (centres unmarked) [Compound 20]: the IC50 in test [1] is 57 nM; in test [2] (setting [3]), 11 nM. Turning to `CCC(C)C1C(=O)OC1C(=O)NC1CC1CC(NC(=O)C(C)NC(=O)OC(C)(C)C)C(=O)NCc1cccc2ccccc12` (centres unmarked) [Compound 21], the IC50 was determined as 520 nM in test [1] and 4 nM in test [2]. On to `CCC(C)C1C(=O)OC1C(=O)NC1CC1CC(NC(=O)C(C)N)C(=O)NCc1cccc2ccccc12` (centres unmarked) [Compound 22], for which the IC50 in test [1] is less than 41 nM; in test [2] (setting [3]), 12 nM. As for `CCC(C)C1C(=O)OC1C(=O)NC1CC1CC(NC(=O)C(C)NC(=O)OC(C)(C)C)C(=O)NNc1ccccc1` (centres unmarked) [Compound 23], the IC50 in test [1] is 410 nM; in test [2], 17 nM. Take `CCCCNC(=O)C(CC1CC1NC(=O)C1OC(=O)C1C(C)CC)NC(=O)C(C)NC(=O)OC(C)(C)C` (centres unmarked) [Compound 24]: the results for the IC50 in test [1] and in test [2] were 20 nM and 15 nM, respectively. For the compound `CCCCNC(=O)C(CC1CC1NC(=O)C1OC(=O)C1C(C)CC)NC(=O)C(C)N` (centres unmarked) [Compound 25], the IC50 was 59 nM in test [1] and 24 nM in test [2].

As to `CCC(C)C1C(=O)OC1C(=O)NC1CC1CC(NC(=O)C(C)NC(=O)OC(C)(C)C)C(=O)N1CCOCC1` (centres unmarked) [Compound 26], the IC50 is 160 nM in test [1] and 13 nM in test [2] (setting [3]). As to `CCC(C)C1C(=O)OC1C(=O)NC1CC1CC(NC(=O)C(C)NC(=O)OC(C)(C)C)C(=O)N[C@@H](C)C(=O)OCc1ccccc1` (some centres unmarked) [Compound 27], in test [2], the IC50 was 3 nM.

With `CCC(C)C1C(=O)OC1C(=O)NC1CC1CC(NC(=O)C(C)NC(=O)OCc1ccccc1)C(=O)OCc1ccccc1` (centres unmarked) [Compound 28], the IC50 in test [1] came to 93 nM; in test [2] (setting [3]), 5 nM. As for `CCC(C)C1C(=O)OC1C(=O)NC1CC1CC(NC(=O)C(C)NC(=O)OCc1ccc(Br)cc1)C(=O)OCc1ccccc1` (centres unmarked) [Compound 29], the IC50 in test [2] (setting [3]) was 5 nM. As for `CCC(C)C1C(=O)OC1C(=O)NC1CC1CC(NC(=O)C(C)NC(=O)NCc1ccccc1)C(=O)OCc1ccccc1` (centres unmarked) [Compound 30], the IC50 in test [1] is 64 nM; in test [2] (setting [3]) it was 4 nM. In the case of `CCC(C)C1C(=O)OC1C(=O)NC1CC1CC(NC(=O)C(C)NC(=O)NC(C)C)C(=O)OCc1ccccc1` (centres unmarked) [Compound 31], the IC50 in test [1] was 113 nM; in test [2] (setting [3]) it was 11 nM. The compound `CCC(C)C1C(=O)OC1C(=O)NC1CC1CC(NC(=O)C(C)N1C(=O)c2ccccc2C1=O)C(=O)OCc1ccccc1` (centres unmarked) [Compound 42] showed an IC50 in test [2] of 22 nM. In turn, `CCC(C)C1C(=O)OC1C(=O)NC1CC1CC1NC(=O)C(C)NC1=O` (centres unmarked) [Compound 44] showed an IC50 in test [2] (setting [4]) of 47 nM. As for `CC(C)CC1C(=O)OC1C(=O)NCC(NC(=O)OC(C)(C)C)C(=O)OCc1ccccc1` (centres unmarked) [Compound 47], in test [2] (setting [4]), the IC50 is 150 nM. For the compound `CC(C)CC1C(=O)OC1C(=O)NCCCCC(NC(=O)OC(C)(C)C)C(=O)OCc1ccccc1` (centres unmarked) [Compound 48], the IC50 in test [2] (setting [3]) is 50 nM. For `CC(C)CC1C(=O)OC1C(=O)NCCCCC(NC(=O)C(C)NC(=O)OC(C)(C)C)C(=O)OCc1ccccc1` (centres unmarked) [Compound 49], in test [2] (setting [3]), the IC50 was 30 nM.

Consider `CC(C)CC1C(=O)OC1C(=O)NCCCCCNC(=O)C(C)NC(=O)OC(C)(C)C` (centres unmarked) [Compound 53], for which the IC50 in test [2] (setting [3]) was 250 nM. On to `CC(C)CC1C(=O)OC1C(=O)NCCCCCNC(=O)C1C(OCc2ccccc2)CCN1C(=O)OC(C)(C)C` (centres unmarked) [Compound 54], for which, in test [2] (setting [3]), the half-maximal inhibitory concentration (IC50) came to 47 nM. For `CC(C)CC1C(=O)OC1C(=O)NCCCCCC(=O)OCc1ccccc1` (centres unmarked) [Compound 55], the IC50 in test [2] (setting [3]) was determined as 77 nM.

With `CC(C)CC1C(=O)OC1C(=O)NCCCC(NC(=O)OC(C)(C)C)C(=O)OCc1ccccc1` (centres unmarked) [Compound 58], the IC50 in test [2] (setting [3]) worked out at 26 nM. On the same count and under the same terms, the result for `CC(C)C[C@@H]1C(=O)O[C@H]1C(=O)NCCC[C@H](NC(=O)[C@H](C)NC(=O)OC(C)(C)C)C(=O)OCc1ccccc1` [Compound 59] reads 33 nM; that for `CC(C)CC1C(=O)OC1C(=O)NCCCC(NC(=O)C(C)N)C(=O)OCc1ccccc1` (centres unmarked) [Compound 60], 40 nM; that for `CC(C)=C[C@@H]1C(=O)O[C@H]1C(=O)NCCCC[C@H](NC(=O)[C@H](C)NC(=O)OC(C)(C)C)C(=O)NCc1cccc2ccccc12` [Compound 74], 3 nM. Same read-out and setting: to `CC(C)CC1C(=O)OC1C(=O)NCCCCC(NC(=O)C(C)NC(=O)OC(C)(C)C)C(=O)NCc1cccc2ccccc12` (centres unmarked) [Compound 75] belongs 1 nM.

In test [2] (setting [4]), `COc1ccc(CC(NC(=O)OC(C)(C)C)C(=O)OCc2ccccc2)cc1NC(=O)C1OC(=O)C1CC(C)C` (centres unmarked) [Compound 81] had an IC50 of 500 nM. For `CC(C)C[C@@H]1C(=O)O[C@H]1C(=O)Nc1cc(C[C@H](NC(=O)OC(C)(C)C)C(=O)OCc2ccccc2)ccc1OCc1ccccc1` [Compound 82], the IC50 in test [2] (setting [3]) is 100 nM.
